Results on 19 molecules are retold here after PubChem BioAssay (NCI).

Molecules are shown by their SMILES.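 In this assay, cells in 96-well plates receive the compound at five concentrations for 48 hours. Endpoints are linearly interpolated between the surrounding concentrations. TGI marks complete inhibition of growth.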

Some test systems named below: LXFL 529 NSCLC; KM20L2 colon; DLD-1 colon; M19-MEL melanoma; SNB-78 CNS; XF 498 CNS; DMS 273 small cell lung; HOP-18 NSCLC; RXF-631 renal.
Test in all cases: NCI anticancer screen, dose series, 48 h

Turning to `Cc1ccc(/C=C/C(=O)C(C)C)cc1`, the TGI with LXFL 529 NSCLC, in the experiment with KM20L2 colon, with DLD-1 colon, in the experiment with M19-MEL melanoma and with SNB-78 CNS was greater than 100 µM throughout.

`Nc1ccc2ncc(Nc3ccc(F)cc3)nc2c1`: the TGI with DLD-1 colon, in the experiment on XF 498 CNS, in the experiment on M19-MEL melanoma, with DMS 273 small cell lung and in the experiment on SNB-78 CNS was greater than 100 µM in each case.

Regarding `COc1cc(C(C#N)NNC(=O)Cc2ccccc2)cc(OC)c1OC` (stereo not given), the TGI with LXFL 529 NSCLC, with KM20L2 colon, in the experiment on DLD-1 colon, with M19-MEL melanoma, in the experiment on DMS 273 small cell lung and in the experiment on SNB-78 CNS was greater than 100 µM each time. This molecule also registered a TGI in the experiment with HOP-18 NSCLC greater than 100 µM.

As to `COc1cc2c(cc1O)[C@H](C)C(c1ccccc1OC)O2` (stereo not given in full), the TGI with LXFL 529 NSCLC was 27.1 µM; in the experiment on KM20L2 colon, 24.4 µM; with DLD-1 colon, greater than 100 µM; with XF 498 CNS, 24 µM; in the experiment with M19-MEL melanoma, greater than 100 µM; in the experiment with DMS 273 small cell lung, greater than 100 µM. Besides, the TGI with SNB-78 CNS and in the experiment on HOP-18 NSCLC was greater than 100 µM throughout.

In the case of `O=C(CSc1nnc(Cc2ccccc2)o1)Nc1ccccc1Cl`, the TGI with LXFL 529 NSCLC, in the experiment on KM20L2 colon, with DLD-1 colon, in the experiment on M19-MEL melanoma, in the experiment on DMS 273 small cell lung and in the experiment with SNB-78 CNS was greater than 100 µM each time. For the same molecule, the TGI with HOP-18 NSCLC is greater than 100 µM.

For `Cc1ccc(C(=O)OC(C)C)cc1N=NN(C)C`, the TGI in the experiment on LXFL 529 NSCLC, in the experiment on KM20L2 colon, in the experiment with DLD-1 colon, in the experiment on M19-MEL melanoma, with DMS 273 small cell lung and in the experiment on SNB-78 CNS was greater than 100 µM each time.

Take `COc1ccc([C@@H]2CC(=O)NCCCNCCCCNCCCN2)cc1`: the TGI in the experiment with LXFL 529 NSCLC, with KM20L2 colon, in the experiment with DLD-1 colon, in the experiment with XF 498 CNS, in the experiment with M19-MEL melanoma and with DMS 273 small cell lung was greater than 100 µM throughout. The TGI in the experiment with SNB-78 CNS and with HOP-18 NSCLC was greater than 100 µM each time.

As to `Fc1ccc2c(c1)SC1Oc3ccccc3-c3c1c-2nn3-c1ccccc1` (stereo not given), the TGI in the experiment on LXFL 529 NSCLC, with KM20L2 colon, in the experiment on DLD-1 colon, with XF 498 CNS, in the experiment on M19-MEL melanoma and with DMS 273 small cell lung was greater than 100 µM throughout. For the same molecule, the TGI in the experiment with SNB-78 CNS, with HOP-18 NSCLC and in the experiment on RXF-631 renal was greater than 100 µM in each case.

`CCOc1ccccc1NC(=O)C(=O)C(C(=O)c1ccc2ccccc2c1)C1OC(=O)c2ccccc21` (stereo not given): the TGI with LXFL 529 NSCLC amounted to 19.4 µM; in the experiment on KM20L2 colon it was 77 µM; with DLD-1 colon, 33.4 µM; in the experiment with DMS 273 small cell lung, 31.7 µM; with SNB-78 CNS, 75.8 µM; in the experiment on HOP-18 NSCLC, 36.3 µM. Moreover, the TGI in the experiment on RXF-631 renal was found to be 22.4 µM.

For `CN/C=C(/c1ccc(OC)cc1)C(O)c1ccc(OC)c(OC)c1` (stereo not given), the TGI with KM20L2 colon, in the experiment on DLD-1 colon, with XF 498 CNS, in the experiment on M19-MEL melanoma, with DMS 273 small cell lung and in the experiment on HOP-18 NSCLC was greater than 100 µM each time. In the experiment with RXF-631 renal, this molecule came in with a TGI greater than 100 µM.

On to `c1ccc(CCCC2Sc3cccc4cccc(c34)S2)cc1`, for which the TGI in the experiment on LXFL 529 NSCLC, in the experiment on KM20L2 colon, in the experiment on DLD-1 colon, in the experiment with XF 498 CNS, with M19-MEL melanoma and in the experiment on DMS 273 small cell lung was greater than 100 µM each time. Further, the TGI in the experiment with SNB-78 CNS was greater than 100 µM.

In the case of `Cc1nc2nn(Cc3ccccc3)cc2c(=O)o1`, the TGI in the experiment on LXFL 529 NSCLC, in the experiment with KM20L2 colon, in the experiment with DLD-1 colon, in the experiment with XF 498 CNS, in the experiment with M19-MEL melanoma and in the experiment on DMS 273 small cell lung was greater than 100 µM each time. Moreover, the TGI with SNB-78 CNS and with RXF-631 renal was greater than 100 µM throughout.

With `CCCCCCCCCCCCC/C=C1\C[C@H](O)COC1=O`, the TGI in the experiment on LXFL 529 NSCLC turned out to be 29.8 µM; in the experiment with KM20L2 colon, 31.7 µM; in the experiment with DLD-1 colon, 32 µM; in the experiment on XF 498 CNS, 30.5 µM; with M19-MEL melanoma it was 33.6 µM; in the experiment on DMS 273 small cell lung it was 28 µM. Moreover, the TGI in the experiment with SNB-78 CNS is 33.9 µM; with HOP-18 NSCLC, 31.6 µM.

As to `COc1ccc(OC)c(/C=C/C(=O)C(C)(C)C)c1`, the TGI in the experiment on LXFL 529 NSCLC is 36.4 µM; with KM20L2 colon, 50.3 µM; in the experiment with DLD-1 colon, 48.4 µM; with M19-MEL melanoma, 34.9 µM; in the experiment on DMS 273 small cell lung, 50.9 µM; in the experiment on HOP-18 NSCLC it was 38.9 µM. The TGI with RXF-631 renal stood at 85.1 µM.

As for `CCOC(=O)C1(Br)C(c2ccccc2)NC(=O)N(C2OC(COC(=O)c3ccccc3)C(OC(=O)c3ccccc3)C2OC(=O)c2ccccc2)C1(C)Br` (stereo not given), the TGI with LXFL 529 NSCLC was greater than 75.7 µM; in the experiment with KM20L2 colon, greater than 100 µM; in the experiment with DLD-1 colon, greater than 100 µM; in the experiment on M19-MEL melanoma it was greater than 100 µM; with DMS 273 small cell lung, greater than 100 µM; in the experiment on HOP-18 NSCLC, greater than 100 µM. The molecule further registered a TGI in the experiment with RXF-631 renal of 50 µM.

On to `Nc1ccc(C(=O)NN2C(=O)C(Cl)C2c2cc(Br)cc(Br)c2O)cc1` (stereo not given), for which the TGI in the experiment with LXFL 529 NSCLC was greater than 100 µM; in the experiment with KM20L2 colon it was greater than 100 µM; in the experiment with DLD-1 colon it was greater than 100 µM; in the experiment on XF 498 CNS, greater than 100 µM; in the experiment with M19-MEL melanoma, 48.3 µM; in the experiment on DMS 273 small cell lung it was greater than 100 µM. The TGI in the experiment with SNB-78 CNS was greater than 100 µM; with HOP-18 NSCLC it was 38.2 µM.

Consider `CC(OC1CC(=O)CC2C(=O)C=CC(=O)C12)c1ccccc1` (stereo not given), for which the TGI in the experiment on LXFL 529 NSCLC stood at 19.8 µM; in the experiment on KM20L2 colon, 31 µM; with DLD-1 colon, 26.7 µM; in the experiment on XF 498 CNS it was 29.4 µM; in the experiment on M19-MEL melanoma, 29.8 µM; in the experiment with DMS 273 small cell lung, 33.8 µM. Besides, the values for the TGI in the experiment with SNB-78 CNS and in the experiment on HOP-18 NSCLC were 36.3 µM and 32.2 µM, respectively.

For `O=[N+]([O-])c1cc2c(cc1O)[nH]c1cccc([N+](=O)[O-])c12`, the TGI with DLD-1 colon, in the experiment with XF 498 CNS, in the experiment with M19-MEL melanoma, with DMS 273 small cell lung, in the experiment on SNB-78 CNS and with HOP-18 NSCLC was greater than 100 µM each time.

For `CC(C)c1cccc(C(C)C)c1NC(=O)C(=O)CC(=O)CC(c1ccccc1)c1c(O)c2ccccc2oc1=O` (stereo not given), the TGI with KM20L2 colon and in the experiment with DLD-1 colon was greater than 100 µM throughout.
